Source: patent US20230219904A1 (SYNGENTA CROP PROTECTION AG, priority 2020, published 2023)

Key:
Type in all cases: in vivo
Conditions in all cases: evaluated after 13 days
Setaria faberi (SETFA) [1] = test: Pre-emergence herbicidal glasshouse test (Table B1)
Summary of the method: (§1)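 Pre: spray 1 d after sowing; post: spray after 8 d growth. Rate 500 g/h (default); vehicle acetone/water 50:50, 0.5% Tween 20. Glasshouse 24/16° C, 14 h light, 65% humidity. Readout % damage at 13 d, 5-point scale.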

[2] = test system: Abutilon theophrasti (ABUTH); test: as above
Summary of the method: as §1

[3] = test system: Amaranthus retoflexus (AMARE); test: as above
Summary of the method: as §1

[4] = test system: Echinochloa crus-galh (ECHCG); test: as above
Summary of the method: as §1

[5] = test system: Ipomoea hederacea (IPOHE); test: as above
Summary of the method: as §1

Setaria faberi (SETFA) [6] = test: Post-emergence herbicidal glasshouse test (Table B1)
Summary of the method: as §1

[7] = test system: Abutilon theophrasti (ABUTH); test: as above
Summary of the method: as §1

[8] = test system: Amaranthus retoflexus (AMARE); test: as above
Summary of the method: as §1

[9] = test system: Echinochloa crus-galh (ECHCG); test: as above
Summary of the method: as §1

[10] = test system: Ipomoea hederacea (IPOHE); test: as above
Summary of the method: as §1

Structure (SMILES) | PRE Application SETFA, percentage damage on five-point scale (Setaria faberi (SETFA) [1]; applied at 500 g/h) | PRE Application ABUTH, percentage damage on five-point scale ([2]; applied at 500 g/h) | PRE Application AMARE, percentage damage on five-point scale ([3]; applied at 500 g/h) | PRE Application ECHCG, percentage damage on five-point scale ([4]; applied at 500 g/h) | PRE Application IPOHE, percentage damage on five-point scale ([5]; applied) | POST Application SETFA, percentage damage on five-point scale (Setaria faberi (SETFA) [6]; applied at 500 g/h) | POST Application ABUTH, percentage damage on five-point scale ([7]; applied at 500 g/h) | POST Application AMARE, percentage damage on five-point scale ([8]; applied at 500 g/h) | POST Application ECHCG, percentage damage on five-point scale ([9]; applied at 500 g/h) | POST Application IPOHE, percentage damage on five-point scale ([10]; applied at 500 g/h) | PRE Application SETFA, percentage damage on five-point scale (Setaria faberi (SETFA) [1]; applied at 125 g/ha) | PRE Application ABUTH, percentage damage on five-point scale ([2]; applied at 125 g/ha) | PRE Application AMARE, percentage damage on five-point scale ([3]; applied at 125 g/ha) | PRE Application ECHCG, percentage damage on five-point scale ([4]; applied at 125 g/ha) | PRE Application IPOHE, percentage damage on five-point scale ([5]; applied at 125 g/ha) | POST Application SETFA, percentage damage on five-point scale (Setaria faberi (SETFA) [6]; applied at 125 g/ha) | POST Application ABUTH, percentage damage on five-point scale ([7]; applied at 125 g/ha) | POST Application AMARE, percentage damage on five-point scale ([8]; applied at 125 g/ha) | POST Application ECHCG, percentage damage on five-point scale ([9]; applied at 125 g/ha) | POST Application IPOHE, percentage damage on five-point scale ([10]; applied at 125 g/ha)
CCC(CC)C(=O)Nc1c(OC(F)(F)F)ccc(C(=O)Nc2nnnn2CC)c1Cl [Compound 1.105] | 3 (3=40-59%) | 5 (5=80-100%) | 5 (5=80-100%) | 5 (5=80-100%) | 2 (2=20-39%) | 5 (5=80-100%) | 5 (5=80-100%) | 5 (5=80-100%) | 5 (5=80-100%) | 5 (5=80-100%) |  |  |  |  |  |  |  |  |  | 
Cn1nnnc1NC(=O)c1ccc(OC(F)(F)F)c(NC(=O)C2CCC2)c1Cl [Compound 1.112] | 1 (1=0-19%) | 4 (4=60-79%) | 5 (5=80-100%) | 5 (5=80-100%) | 1 (1=0-19%) | 5 (5=80-100%) | 5 (5=80-100%) | 5 (5=80-100%) | 5 (5=80-100%) | 5 (5=80-100%) |  |  |  |  |  |  |  |  |  | 
CCn1nnnc1NC(=O)c1ccc(OC(F)(F)F)c(NC(=O)c2ccccn2)c1Cl [Compound 1.128] | 1 (1=0-19%) | 4 (4=60-79%) | 5 (5=80-100%) | 3 (3=40-59%) | 1 (1=0-19%) | 5 (5=80-100%) | 5 (5=80-100%) | 5 (5=80-100%) | 5 (5=80-100%) | 5 (5=80-100%) |  |  |  |  |  |  |  |  |  | 
COc1ccc(C(=O)Nc2nnnn2C)c(Cl)c1NC(=O)C1CC1 [Compound 1.029] | 5 (5=80-100%) | 5 (5=80-100%) | 5 (5=80-100%) | 5 (5=80-100%) | 4 (4=60-79%) | 5 (5=80-100%) | 5 (5=80-100%) | 5 (5=80-100%) | 5 (5=80-100%) | 5 (5=80-100%) |  |  |  |  |  |  |  |  |  | 
CCn1nnnc1NC(=O)c1ccc(OC(F)(F)F)c(NC(=O)C2CC2)c1Cl [Compound 1.117] | 4 (4=60-79%) | 5 (5=80-100%) | 5 (5=80-100%) | 5 (5=80-100%) | 4 (4=60-79%) | 5 (5=80-100%) | 5 (5=80-100%) | 5 (5=80-100%) | 5 (5=80-100%) | 5 (5=80-100%) |  |  |  |  |  |  |  |  |  | 
COCCC(=O)Nc1c(OC(F)(F)F)ccc(C(=O)Nc2nnnn2C)c1Cl [Compound 1.120] | 1 (1=0-19%) | 4 (4=60-79%) | 5 (5=80-100%) | 5 (5=80-100%) | 1 (1=0-19%) | 5 (5=80-100%) | 5 (5=80-100%) | 5 (5=80-100%) | 5 (5=80-100%) | 5 (5=80-100%) |  |  |  |  |  |  |  |  |  | 
CC(C)C(=O)Nc1c(OC(F)F)ccc(C(=O)Nc2nnnn2C)c1Cl [Compound 1.020] |  |  |  |  |  |  |  |  |  |  | 5 (5=80-100%) | 5 (5=80-100%) | 5 (5=80-100%) | 5 (5=80-100%) | 5 (5=80-100%) | 5 (5=80-100%) | 5 (5=80-100%) | 5 (5=80-100%) | 5 (5=80-100%) | 5 (5=80-100%)
CCC(=O)Nc1c(OC(F)F)ccc(C(=O)Nc2nnnn2C)c1C [Compound 1.126] |  |  |  |  |  |  |  |  |  |  | 2 (2=20-39%) | 5 (5=80-100%) | 5 (5=80-100%) | 5 (5=80-100%) | 3 (3=40-59%) | 5 (5=80-100%) | 5 (5=80-100%) | 5 (5=80-100%) | 5 (5=80-100%) | 4 (4=60-79%)
Cc1cccnc1C(=O)Nc1c(OC(F)F)ccc(C(=O)Nc2nnnn2C)c1Cl [Compound 1.093] |  |  |  |  |  |  |  |  |  |  | 4 (4=60-79%) | 5 (5=80-100%) | 5 (5=80-100%) | 5 (5=80-100%) | 4 (4=60-79%) | 4 (4=60-79%) | 4 (4=60-79%) | 4 (4=60-79%) | 5 (5=80-100%) | 4 (4=60-79%)
Cn1nnnc1NC(=O)c1ccc(OC(F)F)c(NC(=O)c2ncccc2F)c1Cl [Compound 1.100] |  |  |  |  |  |  |  |  |  |  | 3 (3=40-59%) | 5 (5=80-100%) | 5 (5=80-100%) | 1 (1=0-19%) | 2 (2=20-39%) | 4 (4=60-79%) | 4 (4=60-79%) | 4 (4=60-79%) | 4 (4=60-79%) | 4 (4=60-79%)
